Tests used:
[1] = digoxin 0.5 mg alone (placebo)
Text: (§1) This was a single-center, randomized, single-blind, placebo-controlled study in 18 healthy subjects. Two groups of subjects were studied in a 4-treatment, 2-sequence, and crossover design. The study was comprised of a screening period, a treatment period, and a follow-up period (approximately 10-13 days following the last test condition). Subjects were randomized in a 1:1 ratio to one of 2 sequences (i.e., Group 1 or 2) of 4 test conditions (i.e., A-D) as shown in Table 1.

clinical [2] = conditions: human, plasma; for AUC(0-t): AUC(0-12)
Text: as §1

clinical [3] = conditions: human, in vivo; for AUC(0-t): AUC(0-12)
[4] = oral, least squares geometric mean, digoxin alone (second geometric-mean column; no unit printed in Table 7)
[5] = least squares geometric mean, Reference
[6] = least squares geometric mean, Test

| Compound | Tmax, median [1] | Tmax (clinical [2]; oral) | AUC(0-t) (clinical [2]; oral, 0.5 mg, mean ± SD, digoxin 0.5 mg alone (placebo)) | AUC(0-t) (clinical [2]; [4]) | Cmax (clinical [2]; [4]) | Cmax (clinical [2]; po, mean ± SD, digoxin 0.5 mg oral single dose alone (placebo; lisinopril 20 mg co-administered)) | AUC0-12 increase (clinical [3]) | Cmax increase (clinical [3]) | Tmax (clinical [3]) | change in the rate of absorption (from Tmax) (clinical [3]) | individual decreases in AUC0-12, 3 of 17 subjects (clinical [3]) | individual increases in AUC0-12, remaining 14 subjects (clinical [3]) | share of the 14 subjects with an increase in AUC0-12 that had an increase 25% (11 subjects) (clinical [3]) | Tmax (clinical [3]; 20 mg) | AUC(0-t) (clinical [3]; 20 mg, mean ± SD) | AUC(0-t) (clinical [3]; [5]) | AUC(0-t) (clinical [3]; [6]) | Cmax (clinical [3]; [5]) | Cmax (clinical [3]; [6]) |
| --- | --- | --- | --- | --- | --- | --- | --- | --- | --- | --- | --- | --- | --- | --- | --- | --- | --- | --- | --- |
| C[C@H]1O[C@@H](O[C@H]2[C@@H](O)C[C@H](O[C@H]3[C@@H](O)C[C@H](O[C@H]4CC[C@@]5(C)[C@H](CC[C@@H]6[C@@H]5C[C@@H](O)[C@]5(C)[C@@H](C7=CC(=O)OC7)CC[C@]65O)C4)O[C@@H]3C)O[C@@H]2C)C[C@H](O)[C@@H]1O [Digoxin, digoxin] | 1 h | 3 h | 9.14 ± 2.03 ng·h/mL | 8.91 ng·h/mL | 2.38 ng/mL | 2.5 ± 0.71 ng/mL | – | – | – | – | – | – | – | – | – | – | – | – | – |
| NCCCC[C@H](N[C@@H](CCc1ccccc1)C(=O)O)C(=O)N1CCC[C@H]1C(=O)O [Lisinopril, lisinopril] | – | – | – | – | – | – | 40% | 50% | 7 h | no apparent change | 6.17-16.1% | 2.98-140% | 79% | 7.5 h | 690 ± 207 ng·h/mL | 661 ng·h/mL | 923 ng·h/mL | 83.6 ng/mL | 126 ng/mL |

From patent publication US20220202911A1 (Amryt Endo, Inc., priority 2020, published 2022)
